From patent publication US20260184690A1, “Substituted Heterocyclic Compounds” (Bristol-Myers Squibb Company, priority 2022, published 2026)
Where two headings read alike, the source gives them in different places. Blank lines part the entries; values can stand above or below the molecule they belong to.

Columns and labels:
[1] = tested on: IFNα-induced pSTAT5 in human whole blood (CD3 positive population); assay: IFNα-induced STAT phosphorylation in human whole blood; type: cell-based; conditions: 1 h compound incubation, 1000 U/mL IFNα A/D for 15 min, CD3+ gate, read-out: Human Whole blood IFNa pSTAT5 IC50
Procedure: After an hour long incubation with compound, human whole blood (drawn with ACD-A as anticoagulant) was stimulated with 1000 U/mL recombinant human IFNα A/D (R&D Systems 11200-2) for 15 min. The stimulation was stopped by adding Fix/Lyse buffer (BD 558049). Cells were stained with a CD3 FITC antibody (BD 555916), washed, and permeabilized on ice using Perm III buffer (BD 558050). Cells were then stained with an Alexa-Fluor 647 pSTAT5 (pY694) antibody (BD 612599) for 60 min prior to analysis on the iQue Plus. The amount of pSTAT5 expression was quantitated by median fluorescence intensity after gating on the CD3 positive population.

Caco-2 cells [2] = assay: Bidirectional permeability assay in Caco-2 cells; conditions: 3 μM, pH 7.4, 0.5% BSA, 2 hours at 37° C.; for Caco-2 AB: apical-to-basolateral Pc
Caco-2 cells [3] = conditions: human, Caco-2, 2 h, 3 μM, pH 7.4
in vitro = conditions: human, Caco-2, pH 7.4

SMILES: CNC(=O)c1cnc(N2CCN(C(C)C)C2=O)cc1Nc1nccc(-c2cnn(C)n2)c1OC [Example 2, 4-{[3-methoxy-4-(2-methyl-2H-1,2,3-triazol-4-yl)pyridin-2-yl]amino}-N-(^2H3)methyl-6-[2-oxo-3-(propan-2-yl)imidazolidin-1-yl]pyridine-3-carboxamide]
IC50 [1]: 26 nM

SMILES: [2H]C([2H])([2H])NC(=O)c1cnc(N2CCN(C(C)C)C2=O)cc1Nc1nccc(-c2cnn(C)n2)c1OC [Example 2, 4-{[3-methoxy-4-(2-methyl-2H-1,2,3-triazol-4-yl)pyridin-2-yl]amino}-N-(^2H3)methyl-6-[2-oxo-3-(propan-2-yl)imidazolidin-1-yl]pyridine-3-carboxamide]
Caco-2 efflux ratio (Caco-2 cells [2]): 1.4
Caco-2 AB (Caco-2 cells [2]): 233 nm/s

SMILES: CNC(=O)c1cnc(N2CCN(C(C)C)C2=O)cc1Nc1cccc(-c2cnn(C)n2)c1OC [Example 3, 4-{[2-methoxy-3-(2-methyl-2H-1,2,3-triazol-4-yl)phenyl]amino}-N-(^2H3)methyl-6-[2-oxo-3-(propan-2-yl)imidazolidin-1-yl]pyridine-3-carboxamide]
IC50 [1]: 77 nM

SMILES: [2H]C([2H])([2H])NC(=O)c1cnc(N2CCN(C(C)C)C2=O)cc1Nc1cccc(-c2cnn(C)n2)c1OC [Example 3, 4-{[2-methoxy-3-(2-methyl-2H-1,2,3-triazol-4-yl)phenyl]amino}-N-(^2H3)methyl-6-[2-oxo-3-(propan-2-yl)imidazolidin-1-yl]pyridine-3-carboxamide]
Caco-2 efflux ratio (Caco-2 cells [2]): 0.7
Caco-2 AB (Caco-2 cells [2]): 287 nm/s

SMILES: CNC(=O)c1nnc(N2CCN(C3CC3)C2=O)cc1Nc1cccc(-c2cnn(C)n2)c1OC [Example 5, 6-(3-cyclopropyl-2-oxoimidazolidin-1-yl)-4-{[2-methoxy-3-(2-methyl-2H-1,2,3-triazol-4-yl)phenyl]amino}-N-(^2H3)methylpyridazine-3-carboxamide]
IC50 [1]: 95 nM

SMILES: CNC(=O)c1cnc(N2CCN(C(F)(F)F)C2=O)cc1Nc1cccc(-c2cnn(C)n2)c1OC [Example 6, 4-{[2-methoxy-3-(2-methyl-2H-1,2,3-triazol-4-yl)phenyl]amino}-N-(^2H3)methyl-6-[2-oxo-3-(trifluoromethyl)imidazolidin-1-yl]pyridine-3-carboxamide]
IC50 [1]: 800 nM

SMILES: [2H]C([2H])([2H])NC(=O)c1cnc(N2CCN(C(F)(F)F)C2=O)cc1Nc1cccc(-c2cnn(C)n2)c1OC [Example 6, 4-{[2-methoxy-3-(2-methyl-2H-1,2,3-triazol-4-yl)phenyl]amino}-N-(^2H3)methyl-6-[2-oxo-3-(trifluoromethyl)imidazolidin-1-yl]pyridine-3-carboxamide]
Caco-2 efflux ratio (Caco-2 cells [2]): 0.6
Caco-2 AB (Caco-2 cells [2]): 118 nm/s

SMILES: [2H]C([2H])([2H])NC(=O)c1nnc(N2CCN(C3CCC3)C2=O)cc1Nc1nccc(-c2cnn(C)n2)c1OC [Example 7, 6-(3-cyclobutyl-2-oxoimidazolidin-1-yl)-4-{[3-methoxy-4-(2-methyl-2H-1,2,3-triazol-4-yl)pyridin-2-yl]amino}-N-(^2H3)methylpyridazine-3-carboxamide]
Caco-2 AB (Caco-2 cells [3]): 139 nm/s

Next, values leading:

IC50 [1]: 26 nM
SMILES: CNC(=O)c1nnc(N2CCN(C3CC3)C2=O)cc1Nc1nccc(-c2cnn(C)n2)c1OC [Example 4, 6-(3-cyclopropyl-2-oxoimidazolidin-1-yl)-4-{[3-methoxy-4-(2-methyl-2H-1,2,3-triazol-4-yl)pyridin-2-yl]amino}-N-(^2H3)methylpyridazine-3-carboxamide]

Caco-2 AB (Caco-2 cells [3]): 576 nm/s
SMILES: [2H]C([2H])([2H])NC(=O)c1nnc(N2CCN(C3CC3)C2=O)cc1Nc1nccc(-c2cnn(C)n2)c1OC [Example 4, 6-(3-cyclopropyl-2-oxoimidazolidin-1-yl)-4-{[3-methoxy-4-(2-methyl-2H-1,2,3-triazol-4-yl)pyridin-2-yl]amino}-N-(^2H3)methylpyridazine-3-carboxamide]

Caco-2 AB (Caco-2 cells [3]): 361 nm/s
SMILES: [2H]C([2H])([2H])NC(=O)c1nnc(N2CCN(C3CC3)C2=O)cc1Nc1cccc(-c2cnn(C)n2)c1OC [Example 5, 6-(3-cyclopropyl-2-oxoimidazolidin-1-yl)-4-{[2-methoxy-3-(2-methyl-2H-1,2,3-triazol-4-yl)phenyl]amino}-N-(^2H3)methylpyridazine-3-carboxamide]

IC50 [1]: 47 nM
SMILES: CNC(=O)c1nnc(N2CCN(C3CCC3)C2=O)cc1Nc1nccc(-c2cnn(C)n2)c1OC [Example 7, 6-(3-cyclobutyl-2-oxoimidazolidin-1-yl)-4-{[3-methoxy-4-(2-methyl-2H-1,2,3-triazol-4-yl)pyridin-2-yl]amino}-N-(^2H3)methylpyridazine-3-carboxamide]

IC50 [1]: 383 nM
Papp A→B at 2 h, 3 μM (in vitro): 15.4 ×10⁻⁶ cm/s
efflux ratio at 2 h, 3 μM (in vitro): 0.3
SMILES: [2H]C([2H])([2H])NC(=O)c1nnc(N2CCN(C(C)C)C2=O)cc1Nc1nc(C)cc(-c2cnn(C)n2)c1OC [Example 8, 6-(3-isopropyl-2-oxoimidazolidin-1-yl)-4-((3-methoxy-6-methyl-4-(2-methyl-2H-1,2,3-triazol-4-yl)pyridin-2-yl)amino)-N-(methyl-d3)pyridazine-3-carboxamide]

IC50 [1]: 141 nM
Papp A→B at 2 h, 3 μM (in vitro): 13.7 ×10⁻⁶ cm/s
efflux ratio at 2 h, 3 μM (in vitro): 0.2
SMILES: [2H]C([2H])([2H])NC(=O)c1nnc(N2CCN(C3CC3)C2=O)cc1Nc1nc(C)cc(-c2cnn(C)n2)c1OC [Example 9, 6-(3-cyclopropyl-2-oxoimidazolidin-1-yl)-4-((3-methoxy-6-methyl-4-(2-methyl-2H-1,2,3-triazol-4-yl)pyridin-2-yl)amino)-N-(methyl-d3)pyridazine-3-carboxamide]
